Experimental data published in PMC9386018, “A lymphatic-absorbed multi-targeted kinase inhibitor for myelofibrosis therapy” (Nature Communications, 2022).
“And” between values parts separate entries of the source, which are not always exact repeats. Identical values can stand only once.

Assays:
mTOR = mTOR (Homo sapiens, UniProt P42345); experiment: Target kinase 10-point inhibition assay, mTOR; assay type: biochemical; details: replicates
Procedure: Quantitation of kinase inhibition was carried out by Life Technologies (Madison, WI) using the SelectScreen profiling platforms Z’-LYTE^TM and Adapta^TM. Single-point broad panel kinome screening was performed at 2.5 µM LP-182 against all kinases within the Z’-LYTE^TM and Adapta^TM assays (321 kinase isoforms, holoenzymes, or mutant variants). The average percent kinase inhibition from replicate data was ranked low to high, converted to a compatible identifier format, then input into Coral Human Kinome Visualization software for presentation analysis. […] Scaling of evolutionary distance for PI kinases is only relative and is based on literature analysis[62],[63]. Average percent kinome inhibition values from replicate data are supplied in Source Data file. […]. Corrected data was normalized to vehicle treated control values, and dose response percent kinase activity was analyzed by non-linear regression for determination of IC50 values.

[1] = target: Target kinase isoforms (PI3K, mTOR, RAF, MEK) (Homo sapiens, UniProt P42336); experiment: Target kinase isoforms 10-point IC50 determination (Supplementary Fig. 7); assay type: biochemical; details: PI3K alpha
Source text: (§1) The average percent kinase inhibition from replicate data was ranked low to high, converted to a compatible identifier format, then input into Coral Human Kinome Visualization software for presentation analysis. […] Scaling of evolutionary distance for PI kinases is only relative and is based on literature analysis[62],[63]. Average percent kinome inhibition values from replicate data are supplied in Source Data file. […] Corrected data was normalized to vehicle treated control values, and dose response percent kinase activity was analyzed by non-linear regression for determination of IC50 values.

[2] = target: Target kinase isoforms (PI3K, mTOR, RAF, MEK) (Homo sapiens, UniProt P42338); experiment: as above; assay type: biochemical; details: PI3K beta
Source text: as §1

[3] = target: Target kinase isoforms (PI3K, mTOR, RAF, MEK) (Homo sapiens, UniProt P42345); experiment: as above; assay type: biochemical; details: mTOR
Source text: as §1

[4] = target: Target kinase isoforms (PI3K, mTOR, RAF, MEK) (Homo sapiens, UniProt P48736); experiment: as above; assay type: biochemical; details: PI3K gamma
Source text: as §1

SET-2 cells = experiment: SET-2 proliferation assay (CellTiter-Fluor); assay type: cell-based, human; details: 72 h, replicates (Fig. 2d)
Procedure: Viable cells were counted by CellTiter-Fluor Assay (Promega) according to manufacturer’s protocol, and all fluorescence values were corrected by a no-cell control. […] Caspase activity was measured by Caspase-Glo 3/7 assay (Promega) according to the manufacturer’s protocol, and all luminescence values were corrected by a no-cell control. Dose response proliferation and Caspase activation data was normalized to vehicle treated control cells and analyzed by non-linear regression for determination of IC50 values. Data was generated from n = 3 independent experiments performed in replicate.

[5] = Pharmacokinetic analysis of plasma after intravenous and oral dosing; details: plasma, mice, analyte = label, individual animals
[6] = concentration 0.495 nM, 0.000495 µM
[7] = concentration 1.52 nM, 0.00152 µM
[8] = concentration 4.57 nM, 0.00457 µM

Target kinase isoforms (PI3K, mTOR, RAF, MEK) (Homo sapiens, UniProt P42336), sequence (P42336 whole entry, canonical isoform): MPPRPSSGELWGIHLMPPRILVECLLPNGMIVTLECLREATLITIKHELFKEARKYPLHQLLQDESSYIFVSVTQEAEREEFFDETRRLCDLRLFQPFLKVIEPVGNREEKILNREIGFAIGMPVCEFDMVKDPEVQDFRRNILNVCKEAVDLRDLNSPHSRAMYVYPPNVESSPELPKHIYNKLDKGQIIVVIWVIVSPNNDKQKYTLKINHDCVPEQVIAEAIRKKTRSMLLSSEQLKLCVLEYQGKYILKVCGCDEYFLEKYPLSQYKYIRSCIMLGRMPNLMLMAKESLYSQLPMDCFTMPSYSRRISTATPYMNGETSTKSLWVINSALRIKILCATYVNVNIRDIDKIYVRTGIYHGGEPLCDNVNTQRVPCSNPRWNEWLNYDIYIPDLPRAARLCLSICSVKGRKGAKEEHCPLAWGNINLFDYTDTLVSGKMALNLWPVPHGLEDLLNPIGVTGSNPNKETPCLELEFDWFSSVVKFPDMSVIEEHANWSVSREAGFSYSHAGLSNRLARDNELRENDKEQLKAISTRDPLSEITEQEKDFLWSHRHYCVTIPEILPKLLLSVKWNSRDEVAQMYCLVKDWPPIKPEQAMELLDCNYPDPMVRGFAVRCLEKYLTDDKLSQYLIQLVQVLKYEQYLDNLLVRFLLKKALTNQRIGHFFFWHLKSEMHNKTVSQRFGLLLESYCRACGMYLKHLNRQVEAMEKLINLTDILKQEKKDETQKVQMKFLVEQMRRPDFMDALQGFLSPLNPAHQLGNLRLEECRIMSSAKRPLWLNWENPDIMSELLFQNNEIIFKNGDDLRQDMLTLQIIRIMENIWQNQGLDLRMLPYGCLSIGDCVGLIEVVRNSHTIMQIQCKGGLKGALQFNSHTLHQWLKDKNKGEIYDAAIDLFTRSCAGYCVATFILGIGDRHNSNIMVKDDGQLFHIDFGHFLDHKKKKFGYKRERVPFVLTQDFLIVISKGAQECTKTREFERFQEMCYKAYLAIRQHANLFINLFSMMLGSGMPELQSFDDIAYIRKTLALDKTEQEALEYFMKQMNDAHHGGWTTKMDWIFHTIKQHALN
Target kinase isoforms (PI3K, mTOR, RAF, MEK) (Homo sapiens, UniProt P42338), sequence (P42338 whole entry, canonical isoform): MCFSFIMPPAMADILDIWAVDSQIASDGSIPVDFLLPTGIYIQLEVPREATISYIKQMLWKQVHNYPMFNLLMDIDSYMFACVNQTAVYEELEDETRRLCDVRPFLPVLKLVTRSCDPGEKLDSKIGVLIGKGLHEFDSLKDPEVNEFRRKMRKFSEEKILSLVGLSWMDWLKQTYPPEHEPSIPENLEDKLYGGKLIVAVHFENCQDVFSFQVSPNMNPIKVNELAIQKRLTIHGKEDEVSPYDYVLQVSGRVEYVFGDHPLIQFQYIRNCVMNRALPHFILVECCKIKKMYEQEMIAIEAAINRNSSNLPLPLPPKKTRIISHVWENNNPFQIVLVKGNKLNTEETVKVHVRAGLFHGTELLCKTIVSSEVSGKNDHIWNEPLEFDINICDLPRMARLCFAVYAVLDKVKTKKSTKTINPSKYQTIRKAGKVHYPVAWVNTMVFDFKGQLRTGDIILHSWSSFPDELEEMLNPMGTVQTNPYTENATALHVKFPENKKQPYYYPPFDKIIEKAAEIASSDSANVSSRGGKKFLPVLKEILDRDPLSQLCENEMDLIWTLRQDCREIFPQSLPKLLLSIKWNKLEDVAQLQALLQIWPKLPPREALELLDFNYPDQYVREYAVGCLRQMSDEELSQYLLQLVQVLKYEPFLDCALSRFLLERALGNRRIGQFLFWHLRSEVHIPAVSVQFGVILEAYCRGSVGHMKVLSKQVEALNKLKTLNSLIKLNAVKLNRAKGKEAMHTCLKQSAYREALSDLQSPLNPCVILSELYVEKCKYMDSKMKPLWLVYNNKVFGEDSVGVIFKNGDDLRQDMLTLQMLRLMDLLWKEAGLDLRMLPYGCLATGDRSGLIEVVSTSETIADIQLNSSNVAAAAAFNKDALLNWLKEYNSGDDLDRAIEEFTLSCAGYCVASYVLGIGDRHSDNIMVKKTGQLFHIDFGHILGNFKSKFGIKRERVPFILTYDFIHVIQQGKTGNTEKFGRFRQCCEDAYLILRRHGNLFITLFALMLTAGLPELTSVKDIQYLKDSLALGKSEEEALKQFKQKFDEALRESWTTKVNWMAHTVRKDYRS
Target kinase isoforms (PI3K, mTOR, RAF, MEK) (Homo sapiens, UniProt P48736), sequence (P48736 whole entry, canonical isoform): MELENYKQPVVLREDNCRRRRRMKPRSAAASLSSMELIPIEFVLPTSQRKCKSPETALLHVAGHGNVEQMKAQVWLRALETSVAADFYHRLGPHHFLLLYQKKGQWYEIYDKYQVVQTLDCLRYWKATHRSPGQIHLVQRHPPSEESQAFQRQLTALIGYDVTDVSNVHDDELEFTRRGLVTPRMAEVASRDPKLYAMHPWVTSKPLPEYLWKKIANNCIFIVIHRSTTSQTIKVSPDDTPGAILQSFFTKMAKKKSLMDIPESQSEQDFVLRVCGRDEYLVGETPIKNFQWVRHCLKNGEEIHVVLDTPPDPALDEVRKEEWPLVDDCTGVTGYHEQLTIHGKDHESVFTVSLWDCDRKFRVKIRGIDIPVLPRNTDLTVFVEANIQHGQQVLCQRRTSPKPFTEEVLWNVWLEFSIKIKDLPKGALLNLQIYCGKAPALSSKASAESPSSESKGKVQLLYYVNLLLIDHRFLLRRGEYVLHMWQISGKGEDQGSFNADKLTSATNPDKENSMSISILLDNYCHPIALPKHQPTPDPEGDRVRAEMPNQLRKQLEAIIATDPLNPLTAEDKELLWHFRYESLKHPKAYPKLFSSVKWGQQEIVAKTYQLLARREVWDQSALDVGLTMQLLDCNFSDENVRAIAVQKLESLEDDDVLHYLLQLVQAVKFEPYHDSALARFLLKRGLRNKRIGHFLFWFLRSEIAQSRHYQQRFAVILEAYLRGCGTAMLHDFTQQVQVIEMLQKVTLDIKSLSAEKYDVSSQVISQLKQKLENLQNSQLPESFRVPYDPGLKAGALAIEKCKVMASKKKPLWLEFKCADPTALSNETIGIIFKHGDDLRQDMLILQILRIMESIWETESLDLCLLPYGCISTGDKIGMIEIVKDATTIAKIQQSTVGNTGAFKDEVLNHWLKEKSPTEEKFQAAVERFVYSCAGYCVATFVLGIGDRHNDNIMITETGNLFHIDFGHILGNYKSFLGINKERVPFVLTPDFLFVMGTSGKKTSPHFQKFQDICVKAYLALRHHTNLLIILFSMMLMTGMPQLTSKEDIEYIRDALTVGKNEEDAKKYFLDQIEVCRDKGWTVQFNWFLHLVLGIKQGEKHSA

In the case of `O=S(=O)(Nc1cc(-c2ccc3ncc(N4CCNCC4)nc3c2)cnc1Cl)c1ccc(F)cc1` [LP-527, N-(2-chloro-5-(3-(piperazin-1-yl)quinoxalin-6-yl)pyridin-3-yl)-4-fluorobenzenesulfonamide], the activity at 0.000495 µM (mTOR; 0.495 nM) is reported as 96%, the “Kinase Activity (%)” value (mTOR; 0.495 nM, 0.000495 µM) is reported as 89% and 90% (2×) and 92% and the activity at 0.00152 µM (mTOR; 1.52 nM) is reported as 78%. For the same molecule, the “Kinase Activity (%)” value (mTOR; 1.52 nM, 0.00152 µM) was 80% and 77% and 74% and 83% and 76%, the activity at 0.00457 µM (mTOR; 4.57 nM) was 63% and the “Kinase Activity (%)” value (mTOR; 4.57 nM, 0.00457 µM) was 61% and 56% and 52% and 57% and 58%. For the same molecule, the “Kinase Activity (%)” value (mTOR; 41.2 nM, 0.0412 µM) was 15% and 14% and 8% and 12% and 0% and 10%, the “Kinase Activity (%)” value (mTOR; 123 nM, 0.123 µM) was 7% (2×) and 3% and 2% and 5% and 0% and the “Kinase Activity (%)” value (mTOR; 1110 nM, 1.11 µM) was 5% and 3% and 2% and -4% and -2% and -1%. For the same molecule, the “Kinase Activity (%)” value (mTOR; 3330 nM, 3.33 µM) was 3% and 2% and 1% and -3% and -2% and -4%, the “Kinase Activity (%)” value (mTOR; 10000 nM, 10 µM) was 6% and 3% and 0% and -1% and 1% and -2% and the “Kinase Activity (%) PI3K alpha” value ([1]; concentration 0.00626 nM, 6.26 pM) was 96% and 108% and 85% and 101%. The activity at 18.8 pM ([1]; concentration 0.0188 nM) was 97%, the “Kinase Activity (%) PI3K alpha” value ([1]; concentration 0.0188 nM, 18.8 pM) was 110% and 96% and 100% and the activity at 56.4 pM ([1]; concentration 0.0564 nM) was 104%. The “Kinase Activity (%) PI3K alpha” value ([1]; concentration 0.0564 nM, 56.4 pM) was 103% and 96% and 99%, the activity at 0.000495 µM ([1]; concentration 0.495 nM) was 47% and the “Kinase Activity (%) PI3K alpha” value [1, 6] was 55% and 56% and 58%. For the same molecule, the activity at 0.00152 µM ([1]; concentration 1.52 nM) was 29%, the “Kinase Activity (%) PI3K alpha” value [1, 7] was 28% and 30% and 31% and the activity at 0.00457 µM ([1]; concentration 4.57 nM) was 15%. The “Kinase Activity (%) PI3K alpha” value [1, 8] was 11% and 9%, the “Kinase Activity (%) PI3K alpha” value ([1]; concentration 41.2 nM, 0.0412 µM) was 3% and 2% and 0% and the “Kinase Activity (%) PI3K beta” value ([2]; concentration 0.0187 nM, 18.7 pM) was 86% and 99% and 98%. For the same molecule, the “Kinase Activity (%) PI3K beta” value ([2]; concentration 0.0562 nM, 56.2 pM) was 94% and 122% and 99% and 98%, the “Kinase Activity (%) PI3K beta” value [2, 6] was 87% and 91% and 92% and 97% and 104% and 103% and 82% and 98% and the “Kinase Activity (%) PI3K beta” value ([2]; concentration 123 nM, 0.123 µM) was 6% and 7% and 8% and 13%. For the same molecule, the activity at […] ([2]; concentration 370 nM) was 4%, the “Kinase Activity (%) PI3K beta” value ([2]; concentration 370 nM, […]) was 3% and the activity at 1.11 µM ([2]; concentration 1110 nM) was 5%. For the same molecule, the “Kinase Activity (%) PI3K beta” value ([2]; concentration 1110 nM, 1.11 µM) was 3%, the “Kinase Activity (%) PI3K beta” value ([2]; concentration 3330 nM, 3.33 µM) was 7% and 6% and 3% and the “Kinase Activity (%) PI3K beta” value ([2]; concentration 10000 nM, 10 µM) was 7% and 0% and 3%. For the same molecule, the activity at 6.09 pM ([2]; concentration […]) was 108%, the activity at 0.000495 µM ([3]; concentration 0.495 nM) was 96% and the “Kinase Activity (%) mTOR” value [3, 6] was 89% and 90% and 92%. The activity at 0.00152 µM ([3]; concentration 1.52 nM) was 78%, the “Kinase Activity (%) mTOR” value [3, 7] was 80% and 77% and 74% and 83% and 76% and the activity at 0.00457 µM ([3]; concentration 4.57 nM) was 63%. For the same molecule, the “Kinase Activity (%) mTOR” value [3, 8] was 61% and 56% and 52% and 57% and 58%, the “Kinase Activity (%) mTOR” value ([3]; concentration 123 nM, 0.123 µM) was 7% and 3% and 2% and 5% and 0% and the “Kinase Activity (%) mTOR” value ([3]; concentration 1110 nM, 1.11 µM) was 5% and 3% and 2% and -4% and -2% and -1%. For the same molecule, the “Kinase Activity (%) mTOR” value ([3]; concentration 3330 nM, 3.33 µM) was 3% and 2% and 1% and -3% and -2% and -4%, the “Kinase Activity (%) mTOR” value ([3]; concentration 10000 nM, 10 µM) was 6% and 3% and 0% and -1% and 1% and -2% and the activity at 18.7 pM ([4]; concentration 0.0187 nM) was 118%. For the same molecule, the “Kinase Activity (%) PI3K gamma” value ([4]; concentration 3330 nM, 3.33 µM) was 0% and 3%, the “Kinase Activity (%) PI3K gamma” value ([4]; concentration 10000 nM, 10 µM) was 3% and 0% and 8% and the activity at 6.09 pM ([4]; concentration […]) was 110%. For the same molecule, the “Growth (%)” value (SET-2 cells; 0.0390625 µM) was 97.7197% and 103.197% and 95.0232% and 96.0199% and 87.1186% and 84.2432%, the “Growth (%)” value (SET-2 cells; 0.078125 µM) was 102.201% and 95.8185% and 100.256% and 94.6633% and 89.3668% and 84.7402% and the “Growth (%)” value (SET-2 cells; 0.15625 µM) was 60.7367% and 65.6255% and 73.87% and 70.9074% and 80.6697% and 85.462%. The “Growth (%)” value (SET-2 cells; 0.3125 µM) was 89.6622% and 88.0779% and 85.9694% and 85.0557% and 87.935% and 90.4791%, the “Growth (%)” value (SET-2 cells; 0.625 µM) was 81.0162% and 91.3823% and 77.1925% and 82.0932% and 77.6879% and 82.066% and the “Growth (%)” value (SET-2 cells; 5 µM) was 12.7992% and 7.412% and 15.3388% and 14.5913% and 45.9761% and 39.8941%. For the same molecule, the “Growth (%)” value (SET-2 cells; 10 µM) was -3.542% and -5.534% and -4.236% and 0.443% and 15.3648% and 16.0393%, the “Growth (%)” value (SET-2 cells; 20 µM) was -8.838% and -10.5585% and -11.075% and -10.5212% and 6.443% and 9.661% and the concentration at 0.167 h ([5]; female, CD-1, mouse, iv, 15 mg kg^−1, Concentration (ng/mL), single i.v. LP-182 15 mg kg^−1, 0.167 h) was 15.5 ng/mL. For the same molecule, the concentration at 0.5 h ([5]; female, CD-1, mouse, iv, 15 mg kg^−1, Concentration (ng/mL), single i.v. LP-182 15 mg kg^−1, 0.5 h) was 7.17 ng/mL, the concentration at 1 h ([5]; female, CD-1, mouse, iv, 15 mg kg^−1, Concentration (ng/mL), single i.v. LP-182 15 mg kg^−1, 1 h) was 6.53 ng/mL and the concentration at 0.5 h ([5]; female, CD-1, mouse, po, 400 mg kg^−1, Concentration (ng/mL), single p.o. LP-182 400 mg kg^−1, 0.5 h) was 9.62 ng/mL. For the same molecule, the concentration at 16 h ([5]; female, CD-1, mouse, po, 400 mg kg^−1, Concentration (ng/mL), single p.o. LP-182 400 mg kg^−1, 16 h) was 19 ng/mL, the “Concentration” value ([5]; single i.v. LP-182 15 mg kg^−1, 0.167 h) was 14.8 ng/mL and 14.5 ng/mL and the “Concentration” value ([5]; single i.v. LP-182 15 mg kg^−1, 0.5 h) was 7.97 ng/mL and 7.89 ng/mL. For the same molecule, the “Concentration” value ([5]; single i.v. LP-182 15 mg kg^−1, 1 h) was 5.65 ng/mL and 6.42 ng/mL, the “Concentration” value ([5]; single i.v. LP-182 15 mg kg^−1, 2 h) was 2.97 ng/mL and 2.53 ng/mL and 1.08 ng/mL and the “Concentration” value ([5]; single p.o. LP-182 400 mg kg^−1, 0.167 h) was 7.25 ng/mL and 15.1 ng/mL and 1.83 ng/mL. The “Concentration” value ([5]; single p.o. LP-182 400 mg kg^−1, 0.5 h) was 13.1 ng/mL and 15 ng/mL, the “Concentration” value ([5]; single p.o. LP-182 400 mg kg^−1, 1 h) was 29.3 ng/mL and 56.7 ng/mL and 12.7 ng/mL and the “Concentration” value ([5]; single p.o. LP-182 400 mg kg^−1, 2 h) was 12.6 ng/mL and 14.5 ng/mL and 5.44 ng/mL. For the same molecule, the “Concentration” value ([5]; single p.o. LP-182 400 mg kg^−1, 4 h) was 23.5 ng/mL and 11.5 ng/mL and 14 ng/mL, the “Concentration” value ([5]; single p.o. LP-182 400 mg kg^−1, 7 h) was 27.3 ng/mL and 11.6 ng/mL and 31.5 ng/mL and the “Concentration” value ([5]; single p.o. LP-182 400 mg kg^−1, 16 h) was 12.8 ng/mL and 13.1 ng/mL. For the same molecule, the “Concentration” value ([5]; single p.o. LP-182 400 mg kg^−1, 24 h) was 24.5 ng/mL and 9.81 ng/mL and 21.4 ng/mL.
